Test results taken from US20230295118A1 (EnhancedBio Inc., priority 2022, published 2023).

Columns and labels:
Format in all cases: cell-based
[1] = target: T1, CDK4 (Homo sapiens, UniProt P11802); test: CDK4 degradation (DC50, Dmax)
T1 construct: endogenous in cells

[2] = system: mantle cell lymphoma cell (Mino or JeKo-1); test: Antiproliferative effect, MTS cell viability assay; details: 72 h, mantle cell lymphoma cell (Mino or JeKo-1), MTS assay, read-out: IC50 (anti-proliferation)
Procedure, shortened: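 Mino cells treated with compounds at 0, 0.0001, 0.001, 0.01, 0.1, 1 μM for 72 h; palbociclib and abemaciclib as positive controls. Viability by MTS, formazan absorbance read at 490 nm.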

[3] = target: T2, CDK6 (Homo sapiens, UniProt Q00534); test: CDK6 degradation (DC50, Dmax)
T2 construct: endogenous in cells
T2 sequence (Q00534 whole entry): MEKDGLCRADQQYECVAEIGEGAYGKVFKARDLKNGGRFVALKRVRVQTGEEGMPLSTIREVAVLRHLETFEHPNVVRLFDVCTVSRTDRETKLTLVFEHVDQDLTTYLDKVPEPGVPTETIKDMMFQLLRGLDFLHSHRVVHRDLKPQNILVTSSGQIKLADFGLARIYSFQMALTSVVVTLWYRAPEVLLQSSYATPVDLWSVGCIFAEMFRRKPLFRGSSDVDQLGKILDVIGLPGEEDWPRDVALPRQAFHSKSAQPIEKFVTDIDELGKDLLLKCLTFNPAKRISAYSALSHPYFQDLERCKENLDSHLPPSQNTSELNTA

T1 sequence (P11802 whole entry): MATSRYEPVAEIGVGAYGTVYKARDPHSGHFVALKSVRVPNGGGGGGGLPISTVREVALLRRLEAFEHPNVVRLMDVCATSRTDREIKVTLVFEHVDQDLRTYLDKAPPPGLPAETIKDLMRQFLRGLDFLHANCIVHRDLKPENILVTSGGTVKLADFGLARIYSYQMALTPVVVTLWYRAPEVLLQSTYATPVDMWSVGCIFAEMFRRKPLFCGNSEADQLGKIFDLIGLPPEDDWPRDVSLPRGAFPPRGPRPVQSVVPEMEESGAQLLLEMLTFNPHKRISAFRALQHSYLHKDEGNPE

DC50 [1] [µM] | Dmax [1] [%] | IC50 [2] [µM] | DC50 [3] [µM] | Dmax [3] [%] | SMILES
< 0.05 | > 80 | < 0.05 | 0.05 to 0.2 | > 60 | Cc1nc2c(F)cc(-c3nc(Nc4ccc(CN5CCN(C(=O)C6CN(c7ccc8c(c7)C(=O)N(C7CCC(=O)NC7=O)C8=O)C6)CC5)cn4)ncc3F)cc2n1C(C)C (centres unmarked) [Compound 135, 2-(2,6-dioxopiperidin-3-yl)-5-(3-(4-((6-((5-fluoro-4-(4-fluoro-1-isopropyl-2-methyl-1H-benzo[d]imidazol-6-yl)pyrimidin-2-yl)amino)pyridin-3-yl)methyl)piperazine-1-carbonyl)azetidin-1-yl)isoindoline-1,3-dione]
0.05 to 0.2 | > 60 | 0.05 to 0.2 | 0.05 to 0.2 | > 60 | Cc1nc2c(F)cc(-c3nc(Nc4ccc(CN5CCN(C(=O)C6CN(c7ccc(NC8CCC(=O)NC8=O)cc7)C6)CC5)cn4)ncc3F)cc2n1C(C)C (centres unmarked) [Compound 138, 3-((4-(3-(4-((6-((5-fluoro-4-(4-fluoro-1-isopropyl-2-methyl-1H-benzo[d]imidazol-6-yl)pyrimidin-2-yl)amino)pyridin-3-yl)methyl)piperazine-1-carbonyl)azetidin-1-yl)phenyl)amino) piperidine-2,6-dione]
< 0.05 | > 80 | < 0.05 | < 0.05 | > 80 | Cc1nc2c(F)cc(-c3nc(Nc4ccc(CC5CCN(CC6CN(c7ccc8c(c7)CN(C7CCC(=O)NC7=O)C8=O)C6)CC5)cn4)ncc3F)cc2n1C(C)C (centres unmarked) [Compound 140, 3-(5-(3-((4-((6-((5-fluoro-4-(4-fluoro-1-isopropyl-2-methyl-1H-benzo[d]imidazol-6-yl)pyrimidin-2-yl)amino)pyridin-3-yl)methyl)piperidin-1-yl)methyl)azetidin-1-yl)-1-oxoisoindolin-2-yl)piperidine-2,6-dione]
0.05 to 0.2 | > 80 | < 0.05 | 0.05 to 0.2 | > 80 | Cc1nc2c(F)cc(-c3nc(Nc4ccc(CC5CCN(CC6CN(c7ccc(C(=O)NC8CCC(=O)NC8=O)cc7)C6)CC5)cn4)ncc3F)cc2n1C(C)C (centres unmarked) [Compound 141, N-(2,6-dioxopiperidin-3-yl)-4-(3-((4-((6-{(5-fluoro-4-(4-fluoro-1-isopropyl-2-methyl-1H-benzo[d]imidazol-6-yl)pyrimidin-2-yl)amino)pyridin-3-yl)methyl)piperidin-1-yl)methyl)azetidin-1-yl)benzamide]
0.05 to 0.2 | > 80 | < 0.05 | 0.05 to 0.2 | > 60 | Cc1nc2c(F)cc(-c3nc(Nc4ccc(CC5CCN(C(=O)C6CN(c7ccc8c(c7)C(=O)N(C7CCC(=O)NC7=O)C8=O)C6)CC5)cn4)ncc3F)cc2n1C(C)C (centres unmarked) [Compound 143, 2-(2,6-dioxopiperidin-3-yl)-5-(3-(4-((6-((5-fluoro-4-(4-fluoro-1-isopropyl-2-methyl-1H-benzo[d]imidazol-6-yl)pyrimidin-2-yl)amino)pyridin-3-yl)methyl)piperidine-1-carbonyl)azetidin-1-yl)isoindoline-1,3-dione]
< 0.05 | > 60 | 0.05 to 0.2 | 0.05 to 0.2 | > 60 | Cc1nc2c(F)cc(-c3nc(Nc4ccc(CC5CCN(C6CN(c7ccc8c(c7)C(=O)N(C7CCC(=O)NC7=O)C8=O)C6)CC5)cn4)ncc3F)cc2n1C(C)C (centres unmarked) [Compound 148, 2-(2,6-dioxopiperidin-3-yl)-5-(3-(4-((6-((5-fluoro-4-(4-fluoro-1-isopropyl-2-methyl-1H-benzo[d]imidazol-6-yl)pyrimidin-2-yl)amino)pyridin-3-yl)methyl)piperidin-1-yl)azetidin-1-yl)isoindoline-1,3-dione]

Second part, the compound before the results:

SMILES | DC50 [1] [µM] | Dmax [1] [%] | IC50 [2] [µM] | DC50 [3] [µM] | Dmax [3] [%]
Cc1nc2c(F)cc(-c3nc(Nc4ccc(CN5CCN(CC6CN(c7ccc(NC8CCC(=O)NC8=O)cc7)C6)CC5)cn4)ncc3F)cc2n1C(C)C (centres unmarked) [Compound 134] | < 0.05 | > 80 | < 0.05 | < 0.05 | > 80
Cc1nc2c(F)cc(-c3nc(Nc4ccc(CN5CCN(C(=O)C6CN(c7ccc8c(c7)CN(C7CCC(=O)NC7=O)C8=O)C6)CC5)cn4)ncc3F)cc2n1C(C)C (centres unmarked) [Compound 136, 3-(5-(3-(4-((6-((5-fluoro-4-(4-fluoro-1-isopropyl-2-methyl-1H-benzo[d]imidazol-6-yl)pyrimidin-2-yl)amino)pyridin-3-yl)methyl)piperazine-1-carbonyl)azetidin-1-yl)-1-oxoisoindolin-2-yl) piperidine-2,6-dione] | 0.05 to 0.2 | > 80 | < 0.05 | 0.05 to 0.2 | > 80
Cc1nc2c(F)cc(-c3nc(Nc4ccc(CN5CCN(C(=O)C6CN(c7ccc(C(=O)NC8CCC(=O)NC8=O)cc7)C6)CC5)cn4)ncc3F)cc2n1C(C)C (centres unmarked) [Compound 137, N-(2,6-dioxopiperidin-3-yl)-4-(3-(4-((6-((5-fluoro-4-(4-fluoro-1-isopropyl-2-methyl-1H-benzo[d]imidazol-6-yl)pyrimidin-2-yl)amino)pyridin-3-yl)methyl)piperazine-1-carbonyl)azetidin-1-yl)benzamide] | 0.05 to 0.2 | > 60 | 0.05 to 0.2 | 0.05 to 0.2 | > 60
Cc1nc2c(F)cc(-c3nc(Nc4ccc(CC5CCN(CC6CN(c7ccc8c(c7)C(=O)N(C7CCC(=O)NC7=O)C8=O)C6)CC5)cn4)ncc3F)cc2n1C(C)C (centres unmarked) [Compound 139, 2-(2,6-dioxopiperidin-3-yl)-5-(3-((4-((6-((5-fluoro-4-(4-fluoro-1-isopropyl-2-methyl-1H-benzo[d]imidazol-6-yl)pyrimidin-2-yl)amino)pyridin-3-yl)methyl)piperidin-1-yl)methyl)azetidin-1-yl)isoindoline-1,3-dione] | < 0.05 | > 80 | < 0.05 | < 0.05 | > 80
Cc1nc2c(F)cc(-c3nc(Nc4ccc(CC5CCN(CC6CN(c7ccc(NC8CCC(=O)NC8=O)cc7)C6)CC5)cn4)ncc3F)cc2n1C(C)C (centres unmarked) [Compound 142, 3-((4-(3-((4-((6-((5-fluoro-4-(4-fluoro-1-isopropyl-2-methyl-1H-benzo[d]imidazol-6-yl)pyrimidin-2-yl)amino)pyridin-3-yl)methyl)piperidin-1-yl)methyl)azetidin-1-yl)phenyl)amino) piperidine-2,6-dione] | 0.05 to 0.2 | > 80 | < 0.05 | 0.05 to 0.2 | > 80
Cc1nc2c(F)cc(-c3nc(Nc4ccc(CC5CCN(C(=O)C6CN(c7ccc8c(c7)CN(C7CCC(=O)NC7=O)C8=O)C6)CC5)cn4)ncc3F)cc2n1C(C)C (centres unmarked) [Compound 144, 3-(5-(3-(4-((6-((5-fluoro-4-(4-fluoro-1-isopropyl-2-methyl-1H-benzo[d]imidazol-6-yl)pyrimidin-2-yl)amino)pyridin-3-yl)methyl)piperidine-1-carbonyl)azetidin-1-yl)-1-oxoisoindolin-2-yl) piperidine-2,6-dione] | 0.05 to 0.2 | > 80 | < 0.05 | 0.05 to 0.2 | > 80
Cc1nc2c(F)cc(-c3nc(Nc4ccc(CC5CCN(C(=O)C6CN(c7ccc(C(=O)NC8CCC(=O)NC8=O)cc7)C6)CC5)cn4)ncc3F)cc2n1C(C)C (centres unmarked) [Compound 145, N-(2,6-dioxopiperidin-3-yl)-4-(3-(4-((6-((5-fluoro-4-(4-fluoro-1-isopropyl-2-methyl-1H-benzo[d]imidazol-6-yl)pyrimidin-2-yl)amino)pyridin-3-yl)methyl)piperidine-1-carbonyl)azetidin-1-yl)benzamide] | 0.05 to 0.2 | > 60 | < 0.05 | 0.05 to 0.2 | > 60
Cc1nc2c(F)cc(-c3nc(Nc4ccc(CC5CCN(C(=O)C6CN(c7ccc(NC8CCC(=O)NC8=O)cc7)C6)CC5)cn4)ncc3F)cc2n1C(C)C (centres unmarked) [Compound 146, 3-((4-(3-(4-((6-((5-fluoro-4-(4-fluoro-1-isopropyl-2-methyl-1H-benzo[d]imidazol-6-yl)pyrimidin-2-yl)amino)pyridin-3-yl)methyl)piperidine-1-carbonyl)azetidin-1-yl)phenyl)amino) piperidine-2,6-dione] | 0.05 to 0.2 | > 50 | 0.05 to 0.2 | 0.05 to 0.2 | > 60
Cc1nc2c(F)cc(-c3nc(Nc4ccc(CN5CCN(C6CN(c7ccc8c(c7)C(=O)N(C7CCC(=O)NC7=O)C8=O)C6)CC5)cn4)ncc3F)cc2n1C(C)C (centres unmarked) [Compound 147, 2-(2,6-dioxopiperidin-3-yl)-5-(3-(4-((6-((5-fluoro-4-(4-fluoro-1-isopropyl-2-methyl-1H-benzo[d]imidazol-6-yl)pyrimidin-2-yl)amino)pyridin-3-yl)methyl)piperazin-1-yl)azetidin-1-yl)isoindoline-1,3-dione] | < 0.05 | > 60 | 0.05 to 0.2 | 0.05 to 0.2 | > 60
Cc1nc2c(F)cc(-c3nc(Nc4ccc(CN5CCN(CC6CCN(c7ccc8c(c7)C(=O)N(C7CCC(=O)NC7=O)C8=O)CC6)CC5)cn4)ncc3F)cc2n1C(C)C (centres unmarked) [Compound 149, 2-(2,6-dioxopiperidin-3-yl)-5-(4-((4-((6-((5-fluoro-4-(4-fluoro-1-isopropyl-2-methyl-1H-benzo[d]imidazol-6-yl)pyrimidin-2-yl)amino)pyridin-3-yl)methyl)piperazin-1-yl)methyl)piperidin-1-yl)isoindoline-1,3-dione] | < 0.05 | > 80 | < 0.05 | < 0.05 | > 80
